31 molecules from ChEMBL document CHEMBL4229332, “Novel multi-target azinesulfonamides of cyclic amine derivatives as potential antipsychotics with pro-social and pro-cognitive effects” (Eur J Med Chem, 2018) can be followed below.

For orientation: Ki means the dissociation constant of the complex between target and ligand, obtained from inhibition or displacement.

What all share (experiment): biochemical
The target of experiment [1] is 5-hydroxytryptamine receptor 7 (Homo sapiens, UniProt P34969).
Description: Displacement of [3H]-5-CT from human 5-HT7R expressed in HEK293 cell membranes after 1 hr at 37 degC by microbeta counting method
Experiment [2] addresses T1, 5-hydroxytryptamine receptor 1A (Homo sapiens, UniProt P08908).
T1 sequence (P08908 whole entry): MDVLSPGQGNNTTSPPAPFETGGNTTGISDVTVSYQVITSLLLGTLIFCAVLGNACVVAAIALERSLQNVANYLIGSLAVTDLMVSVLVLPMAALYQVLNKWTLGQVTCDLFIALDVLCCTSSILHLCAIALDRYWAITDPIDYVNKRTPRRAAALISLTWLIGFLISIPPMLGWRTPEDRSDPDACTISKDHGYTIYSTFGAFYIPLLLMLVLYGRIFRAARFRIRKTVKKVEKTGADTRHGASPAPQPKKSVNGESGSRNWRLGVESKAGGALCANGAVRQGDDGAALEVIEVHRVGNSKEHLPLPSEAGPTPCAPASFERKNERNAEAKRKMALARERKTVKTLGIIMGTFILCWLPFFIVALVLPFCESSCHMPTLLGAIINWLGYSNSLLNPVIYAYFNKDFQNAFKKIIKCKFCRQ
Description: Displacement of [3H]-8-OH-DPAT from human 5-HT1AR expressed in HEK293 cell membranes after 1 hr by microbeta counting method

For experiment [3], the target named is 5-hydroxytryptamine receptor 2A (Homo sapiens, UniProt P28223). It is filed as cell-based, CHO-K1.
In experiment [4] the target is 5-hydroxytryptamine receptor 6 (Homo sapiens, UniProt P50406).
Chain of 5-hydroxytryptamine receptor 6 (P50406 whole entry): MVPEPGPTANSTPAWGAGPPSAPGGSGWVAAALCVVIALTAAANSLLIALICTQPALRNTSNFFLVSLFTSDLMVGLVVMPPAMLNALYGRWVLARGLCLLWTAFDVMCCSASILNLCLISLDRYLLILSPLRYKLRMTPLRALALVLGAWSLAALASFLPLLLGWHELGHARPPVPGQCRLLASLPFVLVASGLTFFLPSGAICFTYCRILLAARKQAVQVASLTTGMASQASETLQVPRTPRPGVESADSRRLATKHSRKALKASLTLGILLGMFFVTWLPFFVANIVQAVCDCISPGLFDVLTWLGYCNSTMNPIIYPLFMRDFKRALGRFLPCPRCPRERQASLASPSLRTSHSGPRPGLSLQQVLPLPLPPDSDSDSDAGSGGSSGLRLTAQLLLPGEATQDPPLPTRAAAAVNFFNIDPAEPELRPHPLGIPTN
Description: Displacement of [3H]-LSD from human 5-HT6R expressed in HEK293 cell membranes after 1 hr at 37 degC by microbeta counting method

Chain of 5-hydroxytryptamine receptor 2A (P28223 whole entry): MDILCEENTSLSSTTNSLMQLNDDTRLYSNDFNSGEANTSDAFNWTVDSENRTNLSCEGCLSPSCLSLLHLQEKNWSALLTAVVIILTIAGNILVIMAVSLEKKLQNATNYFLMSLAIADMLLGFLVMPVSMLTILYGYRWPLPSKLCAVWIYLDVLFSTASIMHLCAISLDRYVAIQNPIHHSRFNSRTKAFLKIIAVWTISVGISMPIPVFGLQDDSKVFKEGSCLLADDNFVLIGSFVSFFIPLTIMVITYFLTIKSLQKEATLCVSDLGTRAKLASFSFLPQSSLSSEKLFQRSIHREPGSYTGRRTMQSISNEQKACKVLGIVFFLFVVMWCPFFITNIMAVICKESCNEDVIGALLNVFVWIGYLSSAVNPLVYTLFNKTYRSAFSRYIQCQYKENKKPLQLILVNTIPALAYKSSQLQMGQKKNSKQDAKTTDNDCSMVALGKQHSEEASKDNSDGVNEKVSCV
Chain of 5-hydroxytryptamine receptor 7 (P34969 whole entry): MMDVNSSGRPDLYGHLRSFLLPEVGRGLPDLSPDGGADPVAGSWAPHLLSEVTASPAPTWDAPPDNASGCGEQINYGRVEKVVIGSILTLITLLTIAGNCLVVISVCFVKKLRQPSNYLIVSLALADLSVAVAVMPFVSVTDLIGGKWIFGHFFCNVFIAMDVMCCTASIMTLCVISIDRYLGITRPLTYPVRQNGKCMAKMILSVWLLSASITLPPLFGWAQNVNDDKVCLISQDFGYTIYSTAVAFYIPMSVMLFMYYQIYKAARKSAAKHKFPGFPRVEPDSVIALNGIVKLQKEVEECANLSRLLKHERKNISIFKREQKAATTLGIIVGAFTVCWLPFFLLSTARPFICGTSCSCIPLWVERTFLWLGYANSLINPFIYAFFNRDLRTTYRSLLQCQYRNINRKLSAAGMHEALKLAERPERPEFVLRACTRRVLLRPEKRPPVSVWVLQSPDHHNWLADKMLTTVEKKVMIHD

With `O=S(=O)(c1cccc2ncccc12)N1CCCCC[C@H]1CCN1CCN(c2cccc3sccc23)CC1`, the Ki in experiment [1] turned out to be 19 nM; in experiment [2], 12 nM; in experiment [3] it was 51 nM; in experiment [4] it was 176 nM.
`O=S(=O)(c1cccc2ncccc12)N1CCC[C@H]1CCN1CC=C(c2c[nH]c3ccc(Cl)cc23)CC1`: the inhibition constant Ki in experiment [1] is 65 nM; in experiment [2], 146 nM; in experiment [3], 1400 nM; in experiment [4], 77 nM.
Consider `O=S(=O)(c1cccc2ncccc12)N1CCC[C@H]1CCN1CCN(c2cccc3sccc23)CC1`, for which the inhibitory constant (Ki) in experiment [1] was 19 nM; in experiment [2], 13 nM; in experiment [3], 36 nM; in experiment [4], 82 nM.
With `O=S(=O)(c1cncc2ccccc12)N1CCC[C@H]1CCN1CC=C(c2c[nH]c3ccc(Cl)cc23)CC1`, the Ki was 97 nM in experiment [1], 66 nM in experiment [2], 238 nM in experiment [3] and 60 nM in experiment [4].
Consider `O=S(=O)(c1cncc2ccccc12)N1CCCCC[C@H]1CCN1CCN(c2cccc3sccc23)CC1`, for which the Ki in experiment [1] came out at 24 nM; in experiment [2] it was 8 nM; in experiment [3] it was 29 nM; in experiment [4] it was 190 nM.
Regarding `O=S(=O)(c1ccnc2ccccc12)N1CCCC[C@@H]1CCN1CCN(c2nsc3ccccc23)CC1`, the inhibitory constant (Ki) in experiment [1] turned out to be 69 nM; in experiment [2], 24 nM; in experiment [3], 35 nM; in experiment [4] it was 1260 nM.
Turning to `O=S(=O)(c1cncc2ccccc12)N1CCC[C@H]1CCN1CCN(c2cccc3c2OCCO3)CC1`, the inhibition constant (Ki) in experiment [1] turned out to be 142 nM; in experiment [2] it was 6 nM; in experiment [3] it was 91 nM; in experiment [4], 1480 nM.
Turning to `O=S(=O)(c1cccc2ncccc12)N1CCC[C@@H]1CCN1CCN(c2cccc3[nH]ccc23)CC1`, the inhibition constant (Ki) is 14 nM in experiment [1], 5 nM in experiment [2], 451 nM in experiment [3] and 641 nM in experiment [4].
The like results for `O=c1[nH]c2c(N3CCN(CC[C@@H]4CCCN4S(=O)(=O)c4cccc5ncccc45)CC3)cccc2o1` were, in that order, 1120 nM, 23 nM, 2450 nM and 3910 nM.
For `O=S(=O)(c1cccc2cnccc12)N1CCC[C@H]1CCN1CCN(c2noc3ccccc23)CC1`, the inhibition constant Ki in experiment [1] worked out at 10 nM; in experiment [2], 86 nM; in experiment [3], 41 nM; in experiment [4], 92 nM.
With `O=S(=O)(c1cccc2cnccc12)N1CCC[C@@H]1CCN1CCN(c2cccc3sccc23)CC1`, the Ki in experiment [1] was 3 nM; in experiment [2] it was 13 nM; in experiment [3] it was 19 nM; in experiment [4], 9 nM.
With `O=S(=O)(c1cccc2ncccc12)N1CCC[C@H]1CCN1CCN(c2nsc3ccccc23)CC1`, the values for the Ki in experiment [2], in experiment [3] and in experiment [4] were 25 nM, 16 nM and 311 nM, respectively.
For `O=S(=O)(c1cccc2ncccc12)N1CCC[C@@H]1CCN1CCC(c2noc3cc(F)ccc23)CC1`, the Ki in experiment [1] is 12 nM; in experiment [2], 120 nM; in experiment [3] it was 5 nM; in experiment [4] it was 45 nM.
For `O=S(=O)(c1cccc2ncccc12)N1CCC[C@@H]1CCN1CCN(c2cccc3sccc23)CC1`, the Ki in experiment [1] amounted to 1 nM; in experiment [2], 15 nM; in experiment [3] it was 56 nM; in experiment [4], 13 nM.
For `O=S(=O)(c1cccc2ncccc12)N1CCC[C@@H]1CCN1CCN(c2cccc3c2OCCO3)CC1`, the inhibitory constant (Ki) in experiment [1] was 66 nM; in experiment [2], 5 nM; in experiment [3], 296 nM; in experiment [4] it was 996 nM.
For the molecule `O=c1[nH]c2c(N3CCN(CC[C@H]4CCCN4S(=O)(=O)c4cncc5ccccc45)CC3)cccc2o1`, the inhibition constant Ki in experiment [1] stood at 1340 nM; in experiment [2], 36 nM; in experiment [3], 1970 nM; in experiment [4] it was 1810 nM.
Consider `O=S(=O)(c1cncc2ccccc12)N1CCC[C@@H]1CCN1CCN(c2cccc3c2OCCO3)CC1`, for which the inhibition constant Ki in experiment [1] was 52 nM; in experiment [2], 7 nM; in experiment [3], 390 nM; in experiment [4], 1260 nM.
Turning to `O=S(=O)(c1cccc2ncccc12)N1CC[C@@H]1CCN1CCN(c2nsc3ccccc23)CC1`, the Ki turned out to be 57 nM in experiment [1], 54 nM in experiment [2], 30 nM in experiment [3] and 344 nM in experiment [4].
For `O=S(=O)(c1cccc2ncccc12)N1CCC[C@@H]1CCN1CCN(c2nsc3ccccc23)CC1`, the Ki in experiment [2] came out at 24 nM; in experiment [3] it was 21 nM; in experiment [4] it was 38 nM.
Turning to `O=S(=O)(c1cncc2ccccc12)N1CCC[C@H]1CCN1CCN(c2noc3ccccc23)CC1`, the inhibitory constant (Ki) turned out to be 6 nM in experiment [1], 96 nM in experiment [2], 33 nM in experiment [3] and 497 nM in experiment [4].
Turning to `O=S(=O)(c1cncc2ccccc12)N1CC[C@@H]1CCN1CCN(c2nsc3ccccc23)CC1`, the inhibition constant (Ki) in experiment [1] was determined as 51 nM; in experiment [2], 56 nM; in experiment [3] it was 24 nM; in experiment [4], 348 nM.
In the case of `O=S(=O)(c1cncc2ccccc12)N1CCC[C@H]1CCN1CCN(c2cccc3[nH]ccc23)CC1`, the Ki was determined as 75 nM in experiment [1], 8 nM in experiment [2], 82 nM in experiment [3] and 2060 nM in experiment [4].
Consider `O=S(=O)(c1cccc2ncccc12)N1CCC[C@H]1CCN1CCN(c2noc3ccccc23)CC1`, for which the inhibition constant Ki worked out at 7 nM in experiment [1], 179 nM in experiment [2], 49 nM in experiment [3] and 291 nM in experiment [4].
For the molecule `O=S(=O)(c1cccc2ncccc12)N1CCC[C@@H]1CCN1CC=C(c2c[nH]c3ccc(Cl)cc23)CC1`, the Ki in experiment [1] was found to be 12 nM; in experiment [2], 91 nM; in experiment [3] it was 1150 nM; in experiment [4] it was 18 nM.
As to `O=S(=O)(c1cncc2ccccc12)N1CCC[C@H]1CCN1CCC(c2noc3cc(F)ccc23)CC1`, the Ki in experiment [1] stood at 0.4 nM; in experiment [2], 111 nM; in experiment [3], 6 nM; in experiment [4], 137 nM.
On to `O=c1[nH]c2c(N3CCN(CC[C@@H]4CCCN4S(=O)(=O)c4cncc5ccccc45)CC3)cccc2o1`, for which the Ki was 672 nM in experiment [1], 27 nM in experiment [2], 2040 nM in experiment [3] and 2990 nM in experiment [4].
The like results for `O=S(=O)(c1cncc2ccccc12)N1CCCC[C@@H]1CCN1CCN(c2cccc3sccc23)CC1` were, in that order, 32 nM, 12 nM, 64 nM and 221 nM.
As for `O=S(=O)(c1cccc2ncccc12)N1CCCC[C@@H]1CCN1CCN(c2cccc3sccc23)CC1`, the Ki in experiment [1] stood at 22 nM; in experiment [2], 15 nM; in experiment [3] it was 35 nM; in experiment [4], 337 nM.
In the case of `O=S(=O)(c1cccc2ncccc12)N1CCCC[C@@H]1CCN1CCN(c2nsc3ccccc23)CC1`, the Ki in experiment [1] is 52 nM; in experiment [2] it was 28 nM; in experiment [3], 29 nM; in experiment [4] it was 949 nM.
Take `O=S(=O)(c1cncc2ccccc12)N1CCC[C@@H]1CCN1CC=C(c2c[nH]c3ccc(Cl)cc23)CC1`: the Ki was 8 nM in experiment [1], 147 nM in experiment [2], 1900 nM in experiment [3] and 23 nM in experiment [4].
Regarding `O=S(=O)(c1cccc2ncccc12)N1CCCCC[C@H]1CCN1CCN(c2nsc3ccccc23)CC1`, the inhibition constant Ki in experiment [1] is 17 nM; in experiment [2], 48 nM; in experiment [3] it was 30 nM; in experiment [4] it was 457 nM.
